# Earlier results, collected in patent publication US20100112181A1, “Recovery of Antioxidants from Decaffeination Process” (priority 2008, published 2010).
# Conditions: reported by K. Iwai et al., 2004
substance,measurement,value
dicaffeoylquinic acids [di-CQA's],antioxidant activity relative to CQA's (in words),higher antioxidant activity than the CQA's
